According to PubChem BioAssay (NCI):
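Step 1: Grow cells in 96-well plates. Step 2: Expose to compound for 48 hours at 5 concentrations. Step 3: Interpolate endpoints linearly; if unreached, use highest concentration. The concentration for 50% growth inhibition is given as GI50. TGI: concentration producing complete growth inhibition.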

Columns and labels:
Test in all cases: NCI-60 cell line screen, 48 h
HOP-92 NSCLC = system: HOP-92 NSCLC
T-47D breast = system: T-47D breast
HCT-15 colon = system: HCT-15 colon
HS 578T breast = system: HS 578T breast
M14 melanoma = system: M14 melanoma
SNB-75 CNS = system: SNB-75 CNS
SR leukemia = system: SR leukemia
DU-145 prostate = system: DU-145 prostate
NCI-H23 lung = system: NCI-H23 lung
UACC-62 melanoma = system: UACC-62 melanoma
OVCAR-8 ovarian = system: OVCAR-8 ovarian
CCRF-CEM leukemia = system: CCRF-CEM leukemia
MDA-MB-435 = system: MDA-MB-435
CAKI-1 renal = system: CAKI-1 renal
KM12 colon = system: KM12 colon
RXF 393 renal = system: RXF 393 renal
A498 renal = system: A498 renal
PC-3 prostate = system: PC-3 prostate
MCF7 breast = system: MCF7 breast
HOP-62 NSCLC = system: HOP-62 NSCLC
HT29 colon = system: HT29 colon
SF-268 CNS = system: SF-268 CNS
NCI-H460 lung = system: NCI-H460 lung
NCI/ADR-RES ovarian = system: NCI/ADR-RES ovarian
NCI-H226 lung = system: NCI-H226 lung
786-0 renal = system: 786-0 renal
COLO 205 colon = system: COLO 205 colon
MDA-MB-231 breast = system: MDA-MB-231 breast
SNB-19 CNS = system: SNB-19 CNS
OVCAR-5 ovarian = system: OVCAR-5 ovarian
SK-MEL-28 melanoma = system: SK-MEL-28 melanoma
SN12C renal = system: SN12C renal
IGROV1 ovarian = system: IGROV1 ovarian
BT-549 breast = system: BT-549 breast
ACHN renal = system: ACHN renal
SF-539 CNS = system: SF-539 CNS
UO-31 renal = system: UO-31 renal
A549 NSCLC = system: A549 NSCLC
U251 CNS = system: U251 CNS
SW-620 colon = system: SW-620 colon
TK-10 renal = system: TK-10 renal
OVCAR-4 ovarian = system: OVCAR-4 ovarian
HL-60(TB) leukemia = system: HL-60(TB) leukemia
SF-295 CNS = system: SF-295 CNS
OVCAR-3 ovarian = system: OVCAR-3 ovarian
SK-MEL-5 melanoma = system: SK-MEL-5 melanoma
RPMI-8226 leukemia = system: RPMI-8226 leukemia
K-562 leukemia = system: K-562 leukemia
MOLT-4 leukemia = system: MOLT-4 leukemia
HCC-2998 colon = system: HCC-2998 colon
SK-OV-3 ovarian = system: SK-OV-3 ovarian
NCI-H522 lung = system: NCI-H522 lung
SK-MEL-2 melanoma = system: SK-MEL-2 melanoma
LOX IMVI melanoma = system: LOX IMVI melanoma
MALME-3M melanoma = system: MALME-3M melanoma
HCT-116 colon = system: HCT-116 colon

Compound: O=C(CSC1CCc2ccccc21)N/N=C/c1ccccc1O (configuration not stated)
- GI50 (HOP-92 NSCLC): 2.61 µM
- TGI (HOP-92 NSCLC): 37.5 µM
- GI50 (T-47D breast): 7.04 µM
- TGI (T-47D breast): > 100 µM
- GI50 (HCT-15 colon): 2.27 µM
- TGI (HCT-15 colon): > 100 µM
- GI50 (HS 578T breast): 11.7 µM
- TGI (HS 578T breast): 67.2 µM
- GI50 (M14 melanoma): 3.7 µM
- TGI (M14 melanoma): 63 µM
- GI50 (SNB-75 CNS): 5.52 µM
- TGI (SNB-75 CNS): > 100 µM
- GI50 (SR leukemia): 4.03 µM
- TGI (SR leukemia): 34.4 µM
- GI50 (DU-145 prostate): 6.09 µM
- TGI (DU-145 prostate): > 100 µM
- GI50 (NCI-H23 lung): 9.83 µM
- TGI (NCI-H23 lung): > 100 µM
- GI50 (UACC-62 melanoma): 2.82 µM
- TGI (UACC-62 melanoma): 13.6 µM
- GI50 (OVCAR-8 ovarian): 3.66 µM
- TGI (OVCAR-8 ovarian): > 100 µM
- GI50 (CCRF-CEM leukemia): 1.64 µM
- TGI (CCRF-CEM leukemia): 45.4 µM
- GI50 (MDA-MB-435): 5.87 µM
- TGI (MDA-MB-435): > 100 µM
- GI50 (CAKI-1 renal): 1.93 µM
- TGI (CAKI-1 renal): 12.7 µM
- GI50 (KM12 colon): 3.73 µM
- TGI (KM12 colon): 23.7 µM
- GI50 (RXF 393 renal): 5.27 µM
- TGI (RXF 393 renal): 61.3 µM
- GI50 (A498 renal): 14.7 µM
- TGI (A498 renal): 44 µM
- GI50 (PC-3 prostate): 3.89 µM
- TGI (PC-3 prostate): 75.8 µM
- GI50 (MCF7 breast): 2.89 µM
- TGI (MCF7 breast): > 100 µM
- GI50 (HOP-62 NSCLC): 10.8 µM
- TGI (HOP-62 NSCLC): > 100 µM
- GI50 (HT29 colon): 18.3 µM
- TGI (HT29 colon): 52.6 µM
- GI50 (SF-268 CNS): 3.33 µM
- TGI (SF-268 CNS): > 100 µM
- GI50 (NCI-H460 lung): 3.4 µM
- TGI (NCI-H460 lung): 14.6 µM
- GI50 (NCI/ADR-RES ovarian): 3.44 µM
- TGI (NCI/ADR-RES ovarian): 35 µM
- GI50 (NCI-H226 lung): 3.11 µM
- TGI (NCI-H226 lung): 35.8 µM
- GI50 (786-0 renal): 6.87 µM
- TGI (786-0 renal): > 100 µM
- GI50 (COLO 205 colon): 5.87 µM
- TGI (COLO 205 colon): > 100 µM
- GI50 (MDA-MB-231 breast): 3.98 µM
- TGI (MDA-MB-231 breast): 39.6 µM
- GI50 (SNB-19 CNS): 6.11 µM
- TGI (SNB-19 CNS): > 100 µM
- GI50 (OVCAR-5 ovarian): 8.8 µM
- TGI (OVCAR-5 ovarian): > 100 µM
- GI50 (SK-MEL-28 melanoma): 4.72 µM
- TGI (SK-MEL-28 melanoma): > 100 µM
- GI50 (SN12C renal): 4.67 µM
- TGI (SN12C renal): 67.4 µM
- GI50 (IGROV1 ovarian): 2.24 µM
- TGI (IGROV1 ovarian): 37.4 µM
- GI50 (BT-549 breast): 5.46 µM
- TGI (BT-549 breast): 34.2 µM
- GI50 (ACHN renal): 2.67 µM
- TGI (ACHN renal): 20 µM
- GI50 (SF-539 CNS): 3.03 µM
- TGI (SF-539 CNS): 17.2 µM
- GI50 (UO-31 renal): 0.985 µM
- TGI (UO-31 renal): 17 µM
- GI50 (A549 NSCLC): 4.81 µM
- TGI (A549 NSCLC): > 100 µM
- GI50 (U251 CNS): 2.92 µM
- TGI (U251 CNS): 42.5 µM
- GI50 (SW-620 colon): 5.66 µM
- TGI (SW-620 colon): 81.4 µM
- GI50 (TK-10 renal): 6.1 µM
- TGI (TK-10 renal): 73.8 µM
- GI50 (OVCAR-4 ovarian): 1.55 µM
- TGI (OVCAR-4 ovarian): 92.5 µM
- GI50 (HL-60(TB) leukemia): 2.6 µM
- TGI (HL-60(TB) leukemia): 8.72 µM
- GI50 (SF-295 CNS): 6.84 µM
- TGI (SF-295 CNS): > 100 µM
- GI50 (OVCAR-3 ovarian): 4.67 µM
- TGI (OVCAR-3 ovarian): 48.9 µM
- GI50 (SK-MEL-5 melanoma): 1.85 µM
- TGI (SK-MEL-5 melanoma): 5.17 µM
- GI50 (RPMI-8226 leukemia): 7.47 µM
- TGI (RPMI-8226 leukemia): 38.4 µM
- GI50 (K-562 leukemia): 4.59 µM
- TGI (K-562 leukemia): > 100 µM
- GI50 (MOLT-4 leukemia): 3.79 µM
- TGI (MOLT-4 leukemia): 56.7 µM
- GI50 (HCC-2998 colon): 5.59 µM
- TGI (HCC-2998 colon): 35.4 µM
- GI50 (SK-OV-3 ovarian): 11.5 µM
- TGI (SK-OV-3 ovarian): > 100 µM
- GI50 (NCI-H522 lung): 4.98 µM
- TGI (NCI-H522 lung): 26.4 µM
- GI50 (SK-MEL-2 melanoma): 5.26 µM
- TGI (SK-MEL-2 melanoma): 24.6 µM
- GI50 (LOX IMVI melanoma): 2.37 µM
- TGI (LOX IMVI melanoma): 21.5 µM
- GI50 (MALME-3M melanoma): 6.4 µM
- TGI (MALME-3M melanoma): 42.3 µM
- GI50 (HCT-116 colon): 5.01 µM
- TGI (HCT-116 colon): 65.6 µM
